In patent publication EP3181118B1, “SYNERGISTIC COMBINATION OF TXNR INHIBITORS AND ASCORBATE FOR TREATMENT OF B CELL MALIGNANCIES” (Warszawski Uniwersytet Medyczny, priority 2015, dated 2017):
Where two headings read alike, the source gives them in different places.

Columns and labels:
[1] = tested on: adult mice; conditions: cited from earlier work
[2] = tested on: normal B cells isolated from human tonsils; assay: Non-viable cells by propidium iodide staining in normal B cells; type: cell-based; conditions: TXNR inhibitor in combination with L-ASC, 48 hours, three healthy donors, Fig. 5
Procedure: Human tonsils were derived from subjects undergoing tonsillectomy. After resection, tonsils were cut into small pieces and incubated in the RPMI medium supplemented with collagenase and DNase for 30 min at 37 °C with gentle shaking and filtered through 70 µm cell strainer. After washing in PBS, mononuclear cells were isolated with Histopaque 1077 density gradient and subjected to CD19 negative selection using EasySep™ Human B Cell Enrichment Kit ([…] Technologies). The purity of isolated B cells exceeded 95%. Subsequently, B cells were suspended in RPMI medium supplemented with 10% fetal bovine serum and antibiotic/antimycotic solution, and incubated with L-ASC, SK053, AUR, exactly as Raji cells (described in Example 1). After 48 hours of incubation, the number of non-viable cells was determined by flow cytometry, as the fraction of propidium iodide positive cells. […] This experiment was repeated in three different healthy donors.

[3] = tested on: adult rats; conditions: cited from earlier work
[4] = tested on: Raji cells; assay: MTT assay, cytostatic/cytotoxic effects; type: cell-based, human; conditions: 48 hours, Fig. 1
Procedure: Raji cells were grown in RPMI medium supplemented with 10% fetal bovine serum and antibiotic/antimycotic solution. Raji cells were incubated for 15 min at 37 °C with 100 µM or 200 µM L-ASC and then TXNR inhibitors, SK053 or AUR, were added and the cells were cultured for additional 48 hours. Cytostatic/cytotoxic effects of treatment were assessed by:
(a) MTT (3-[4,5-dimethylthiazol-2-yl]-2,5-diphenyltetrazolium bromide) assay
20 µl of MTT (5mg/ml in PBS) was added to 100 µl of cells and maintained in cell culture conditions. After 2 hours, 100 µl of solubilization buffer (10% SDS, 0,01N HCl) was added to each well and plates were maintained in a cell culture incubator overnight. The absorbance was measured at 560 nm using a microplate reader (ASYS UVM 340, Biochrom). The relative viability was calculated according to the following formula: % viability = [(Am - Ab)/(Ac - Ab)] × 100%, where Am is the measured absorbance, Ab is the background absorbance, and Ac is the absorbance of vehiculum-treated controls (DMSO).

[5] = tested on: Raji cells; assay: Number of dead cells by propidium iodide staining, flow cytometry; type: cell-based, human; conditions: 48 hours, Fig. 2; for propidium iodide-positive cells (dead cells): compound alone (L-ASC 100 µM)
Procedure: Raji cells were grown in RPMI medium supplemented with 10% fetal bovine serum and antibiotic/antimycotic solution. […] Cytostatic/cytotoxic effects of treatment were assessed by:
(b) Quantitation of the number of dead cells with propidium iodide staining using flow cytometry
100 µl of cells were mixed with 100 µl of propidium iodide solution (4 µg/ml in PBS) and the number of propidium iodide-positive cells (dead cells) was assessed using flow cytometer Accuri C6.

[6] = cited from earlier work
[7] = cited from earlier work; remark: listed apart in the source
[8] = tested on: Raji cells; assay: Intracellular ROS level, CM-H2-DCFDA fluorescent probe, flow cytometry; type: cell-based, human
Procedure: The level of intracellular ROS in Raji cells treated with L-ASC and SK053 alone or in combination was evaluated. Raji cells were loaded with CM-H2-DCFDA fluorescent probe (Molecular Probes) according to the manufacturer's protocol, using 1 µM dye concentration for 30 min. at 37 °C. […] After 8 hours cells were harvested in PBS and the intensity of green fluorescence was analyzed by flow cytometry (Accuri C6).

[9] = tested on: advanced cancers; conditions: patients with advanced cancers, L-ASC-treated subjects; cited from earlier work
[10] = tested on: lymphoma cells; conditions: lymphoma cells in vitro; cited from earlier work
[11] = tested on: Raji cells; assay: Comparison of ascorbate stereoisomers and oxidized form combined with TXNR inhibitors (Fig. 3); type: cell-based, human; conditions: ascorbate form combined with SK053 or AUR

CC(=O)OC[C@H]1O[C@@H]([S-])[C@H](OC(C)=O)[C@@H](OC(C)=O)[C@@H]1OC(C)=O.CCP(CC)CC.[Au+] [AUR, (2,3,4,6-tetra-O-acetyl-1-thio-β-D-glucopyranosato-S-) (triethyl-phosphine) gold complex]
acute oral LD50 [1]: 310 mg/kg
synergistic cytotoxic effect with L-ASC, fraction of propidium iodide positive cells [2]: synergistic cytotoxic effect between none of the TXNR inhibitors and L-ASC was observed
acute oral LD50 ([3]; adult rats, oral): 265 mg/kg
minimum lethal dose ([3]; rats): 30 mg/kg
cytostatic/cytotoxic effects of TXNR inhibitor in combination with L-ASC ([4]; in combination with 100 µM or 200 µM L-ASC): remarkably increased the cytostatic/cytotoxic effects
dead cells ([5]; TXNR inhibitor in combination with 100 µM L-ASC): ~100%
propidium iodide-positive cells (dead cells) [5]: < 10%
labelled gold excreted ([6]; by day 10, total): 77%
labelled gold excreted with feces ([6]; by day 10): 73%
labelled gold excreted with urine ([6]; by day 10): 4%
AUR gold bound to red blood cells ([6]; in blood): approximately 40%
AUR gold bound to serum proteins ([6]; in blood): 60%
oral dose absorbed ([6]; oral, radiolabelled AUR): approximately 25%
peak plasma concentrations ([6]; oral, radiolabelled AUR): 0.3 to 0.4 µM
time to reach peak plasma concentrations ([6]; oral, radiolabelled AUR): 1 to 2 h
mean plasma half-life ([6]; radiolabelled AUR): 17 days
labelled gold retained in the body ([6]; six months after a single dose): 0,4%

O=C1O[C@H]([C@@H](O)CO)C(O)=C1O [L-ASC, L-ascorbate]
plasma concentration ([7]; high oral doses): approximately 220 µM
L-ASC plasma concentrations ([7]; intravenous (i.v.) delivery): up to 20 mM
L-ASC plasma concentrations ([7]; oral administration, maximal): ≤ 300 µM
peak plasma concentrations ([7]; slow i.v. infusion of high doses): over 10 mM
ROS levels in the presence of catalase ([8]; compound alone, with 100 µg/ml catalase, Fig. 4B): at the control levels
ROS levels ([8]; compound alone: 100 µM ASC or 20 µM SK053, 8 hours, Fig. 4A): only slightly increased ROS levels
viability of Raji cells ([4]; L-ASC alone at 100 µM and 200 µM): did not affect the viability
propidium iodide-positive cells (dead cells) [5]: < 10%
increased mean survival time (MST) [9]: over 4 fold
LD50 [10]: ~0,5 mM

O=C1O[C@H]([C@@H](O)CO)C(=O)C1=O [L-DHA, dehydroascorbic acid]
interaction with TXNR inhibitors (SK053, AUR), cytotoxicity to Raji cells [11]: had no impact on cytotoxicity
